The text below walks through data of patent EP1353942B1, “PEPTIDE INHIBITORS OF HIV ENTRY” (WHITEHEAD INSTITUTE FOR BIOMEDICAL RESEARCH, priority 2000, dated 2010).

What is called IC50 is the midpoint of a concentration-inhibition curve.

In one data set the test system is HIV-1. On the procedure: HIV Infectivity Assay. Inhibitory activity was determined in an HIV luciferase assay (Chen et al., 1994). Specifically, virus was made by cotransfecting 293T cells with an HIV-1 genome containing a frame-shift mutation in env and luciferase replacing the nef gene (NL43LucR-E-) along with pCMVHXB2, an expression vector with the HXB2 gp160 gene. The resultant virus is only viable for one round of infection since its genome lacks the envelope gene. The cellular debris was removed by low-speed centrifugation. The remaining viral supernatant was used to infect HOS-CD4/Fusion cells (N. Landau, National Institutes of Health AIDS Reagent Program) in the presence of the potentially inhibitory peptides. Two days post-infection, the cells were lysed and luciferase activity was monitored on a Wallac AutoLumat LB953 luminometer (Gaithersburg, MD). IC50s (the peptide concentration at which half of the viral infection is inhibited) were calculated by fitting the data to a Langmuir equation [y = k/(1+[peptide]/IC50)], where y = luciferase activity and k is a scaling constant.

The nature of data set [1]: Circular dichroism (ellipticity at 222 nm, helicity). It counts as physicochemical. The note with it: IZN17 at 20 µM. On the procedure:
(§1) Circular Dichroism. All CD measurements were performed on an Aviv 62 DS cirucular dichroism spectrometer. Standard scans were performed on 10 µM solutions of peptide in PBS (50 mM sodium phosphate, 150 mM sodium chloride [pH 7.4]) from 200 to 260 nm in a 1 cm pathlength cuvette with a 5 second averaging time. The mean residue ellipticity (θ) was calculated by dividing the raw signal by peptide concentration (M), pathlength (mm) and number of amino acids. Percent helicity was calculated according to Chen et al. (Biochemistry, 13, 1974, p3350). Thermal denaturation scans of 10 µM peptide solutions in PBS were recorded at 222 nm. The peptide was heated at two degree intervals starting at 4°C, with an equilibration time of 1.5 minutes and an averaging time of 60 seconds.
The following Table summarizes the biophysical data and inhibitory activity for the chimeric coiled coil N peptides. The first column (θ222nm) is circular dichroism data, representing the helicity of each peptide. The lower the number, the more helical. The second column is the melting temperature and signifies the temperature at which half of the peptide is unfolded. The next column (Mobs/Mcalc) signifies the oligomeric state of the peptide, with 3.0 being a discrete trimer. The final column is the concentration at which each peptide is at half maximal inhibitory potency for viral infection. Table 1. […]
On the technique in general: Circular dichroism is the unequal absorption of left and right circularly polarised light.

Data set [2] can be described thus: Thermal denaturation followed by circular dichroism at 222 nm. The format is physicochemical. The protocol: as §1
(§2) The following Table summarizes the biophysical data and inhibitory activity for the chimeric coiled coil N peptides. The first column (θ222nm) is circular dichroism data, representing the helicity of each peptide. The lower the number, the more helical. The second column is the melting temperature and signifies the temperature at which half of the peptide is unfolded. The next column (Mobs/Mcalc) signifies the oligomeric state of the peptide, with 3.0 being a discrete trimer. The final column is the concentration at which each peptide is at half maximal inhibitory potency for viral infection. Table 1. Biophysical data and HIV-1 inhibitory activity
(§3) The second column is the ellipticity at 222 nm of a 20 µM solution of peptide in PBS. The third column lists the midpoint of thermal denaturation of 10 µM solutions of peptide in PBS.

A short description of data set [3]: Sedimentation equilibrium (analytical ultracentrifugation). The format is physicochemical. The note with it: for Mobs/Mcalc: 20 µM peptide solutions in PBS, 3.0 being a discrete trimer. On the procedure: Sedimentation Equilibrium. All measurements were recorded on a Beckman XL-A analytical ultracentrifuge equipped with an An-60 Ti rotor. Lyophilized peptide was resuspended in water, and the peptide concentration was determined (Edelhoch, 1967). The solution was diluted to 100-200 µM and then dialized overnight against PBS. Following dialysis, the concentration was redetermined and the appropriate dilutions were made, using the dialysis buffer. The samples were centrifuged at speeds ranging from 19,000 to 25,000 RPM.
as §2, §3

Data set [4] concerns the target HIV-1 gp41 (C peptide region), from HXB2 gp160 envelope on pseudotyped virus (HIV-1 (HXB2)) (UniProt P04578). Briefly: cell-based or functional assay.

Where two headings read alike, the source gives them in different places.

“Ac-IKKEIEAIKKEQEAIKKKIEAIEKLLQLTVWGIKQLQARIL-NH2 [IZN17]”: the IC50 with HIV-1 (concentration of peptide at which half of viral infectivity is inhibited, HOS-CD4/Fusion cells, HXB2 envelope, tentative values) was 5.6 nM; with HIV-1 (read-out: IC50 in the viral infectivity assay, viral infectivity assay) it was approximately 5.6 nM. Moreover, the “helicity (in words)” value in data set [1] was “helical”. The “thermal denaturation temperature relative to IQN17” value in data set [2] (In 2 M GuHCl) is recorded as “ten degrees higher”. Also, the “Melting Temperature” value in data set [2] (midpoint of thermal denaturation of 10 µM solutions of peptide in PBS) is more than 100 °C. Besides, in data set [2] (no denaturant), the “melt (thermal unfolding)” value was “above 100 °C”. The Mobs/Mcalc in data set [3] is 3.05. Further, the “oligomeric state (in words)” value in data set [3] (sedimentation equilibrium, IZN17 at 20 µM) is “discretely trimeric”.
Regarding “Ac-YGGIKKEIEAIKKEQEAIKKKIEAIEKEIVQARQLLSGIVQQQNNLLRAIEAQQH-NH2 [IZN26]”, the Mobs/Mcalc entry in data set [3] was “∼2.87”.
Turning to IZN17 (peptide), in data set [4], the IC50 (nm), HIV-1 luciferase viral infectivity assay (HXB2 env pseudotyped virus on HOS-CD4/Fusin cells) turned out to be 5.6 nM.
